Experimental data: PubChem BioAssay (NCI)
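A five-concentration, 48-hour dose response in 96-well plates underlies each endpoint, interpolated linearly between surrounding concentrations. TGI is the concentration that stops growth completely.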

How the values were obtained:
Assay in all cases: inhibition of tumour cell growth, NCI panel, 48 h
[1] = tested on: PC-3 prostate
[2] = tested on: OVCAR-4 ovarian
[3] = tested on: HCT-116 colon
[4] = tested on: SNB-19 CNS
[5] = tested on: MCF7 breast
[6] = tested on: MOLT-4 leukemia
[7] = tested on: SF-268 CNS
[8] = tested on: M14 melanoma
[9] = tested on: RXF 393 renal
[10] = tested on: HT29 colon
[11] = tested on: OVCAR-5 ovarian
[12] = tested on: COLO 205 colon
[13] = tested on: SNB-75 CNS
[14] = tested on: OVCAR-8 ovarian
[15] = tested on: MDA-MB-435
[16] = tested on: A498 renal
[17] = tested on: MDA-N
[18] = tested on: SK-MEL-2 melanoma
[19] = tested on: CAKI-1 renal
[20] = tested on: TK-10 renal
[21] = tested on: RPMI-8226 leukemia
[22] = tested on: LOX IMVI melanoma
[23] = tested on: T-47D breast
[24] = tested on: SW-620 colon
[25] = tested on: KM12 colon
[26] = tested on: A549 NSCLC
[27] = tested on: EKVX NSCLC
[28] = tested on: SF-295 CNS
[29] = tested on: IGROV1 ovarian
[30] = tested on: MDA-MB-231 breast
[31] = tested on: SK-MEL-28 melanoma
[32] = tested on: MALME-3M melanoma
[33] = tested on: SN12C renal
[34] = tested on: HOP-62 NSCLC
[35] = tested on: ACHN renal
[36] = tested on: OVCAR-3 ovarian
[37] = tested on: BT-549 breast
[38] = tested on: UACC-62 melanoma
[39] = tested on: HS 578T breast
[40] = tested on: NCI-H23 lung
[41] = tested on: HOP-92 NSCLC
[42] = tested on: NCI-H460 lung
[43] = tested on: CCRF-CEM leukemia
[44] = tested on: HCC-2998 colon
[45] = tested on: NCI/ADR-RES ovarian
[46] = tested on: U251 CNS
[47] = tested on: NCI-H522 lung
[48] = tested on: SF-539 CNS
[49] = tested on: UACC-257 melanoma
[50] = tested on: SK-OV-3 ovarian
[51] = tested on: HL-60(TB) leukemia
[52] = tested on: K-562 leukemia
[53] = tested on: 786-0 renal
[54] = tested on: DU-145 prostate
[55] = tested on: HCT-15 colon
[56] = tested on: SR leukemia
[57] = tested on: SK-MEL-5 melanoma
[58] = tested on: NCI-H226 lung
[59] = tested on: UO-31 renal

SMILES: N/C(COc1ccc(Cl)cc1)=N\NC(=O)c1ccncc1
- TGI [1]: > 100 µM
- TGI [2]: > 100 µM
- TGI [3]: > 100 µM
- TGI [4]: > 100 µM
- TGI [5]: > 100 µM
- TGI [6]: > 100 µM
- TGI [7]: > 100 µM
- TGI [8]: > 100 µM
- TGI [9]: > 100 µM
- TGI [10]: > 100 µM
- TGI [11]: > 100 µM
- TGI [12]: > 100 µM
- TGI [13]: 85.2 µM
- TGI [14]: > 100 µM
- TGI [15]: > 100 µM
- TGI [16]: > 100 µM
- TGI [17]: > 100 µM
- TGI [18]: > 100 µM
- TGI [19]: > 100 µM
- TGI [20]: > 100 µM
- TGI [21]: > 100 µM
- TGI [22]: > 100 µM
- TGI [23]: > 100 µM
- TGI [24]: > 100 µM
- TGI [25]: > 100 µM
- TGI [26]: > 100 µM
- TGI [27]: > 100 µM
- TGI [28]: > 100 µM
- TGI [29]: > 100 µM
- TGI [30]: > 100 µM
- TGI [31]: > 100 µM
- TGI [32]: > 100 µM
- TGI [33]: > 100 µM
- TGI [34]: > 100 µM
- TGI [35]: > 100 µM
- TGI [36]: > 100 µM
- TGI [37]: > 100 µM
- TGI [38]: > 100 µM
- TGI [39]: > 100 µM
- TGI [40]: > 100 µM
- TGI [41]: > 100 µM
- TGI [42]: > 100 µM
- TGI [43]: > 100 µM
- TGI [44]: > 100 µM
- TGI [45]: > 100 µM
- TGI [46]: > 100 µM
- TGI [47]: > 100 µM
- TGI [48]: > 100 µM
- TGI [49]: > 100 µM
- TGI [50]: > 100 µM
- TGI [51]: > 100 µM
- TGI [52]: > 100 µM
- TGI [53]: > 100 µM
- TGI [54]: > 100 µM
- TGI [55]: > 100 µM

SMILES: NS(=O)(=O)c1nnc(/N=C(/CCC(=O)O)C(=O)O)s1
- TGI [1]: > 100 µM
- TGI [2]: > 100 µM
- TGI [3]: > 100 µM
- TGI [4]: > 100 µM
- TGI [5]: > 100 µM
- TGI [6]: > 100 µM
- TGI [8]: > 100 µM
- TGI [10]: > 100 µM
- TGI [11]: > 100 µM
- TGI [56]: > 100 µM
- TGI [12]: > 100 µM
- TGI [13]: > 100 µM
- TGI [14]: > 100 µM
- TGI [15]: > 100 µM
- TGI [57]: > 100 µM
- TGI [16]: > 100 µM
- TGI [17]: > 100 µM
- TGI [18]: > 100 µM
- TGI [19]: > 100 µM
- TGI [20]: > 100 µM
- TGI [58]: > 100 µM
- TGI [21]: > 100 µM
- TGI [22]: > 100 µM
- TGI [23]: > 100 µM
- TGI [59]: > 100 µM
- TGI [24]: > 100 µM
- TGI [25]: > 100 µM
- TGI [26]: > 100 µM
- TGI [27]: > 100 µM
- TGI [28]: > 100 µM
- TGI [29]: > 100 µM
- TGI [30]: > 100 µM
- TGI [31]: > 100 µM
- TGI [32]: > 100 µM
- TGI [33]: > 100 µM
- TGI [34]: > 100 µM
- TGI [35]: > 100 µM
- TGI [36]: > 100 µM
- TGI [37]: > 100 µM
- TGI [38]: > 100 µM
- TGI [39]: > 100 µM
- TGI [40]: > 100 µM
- TGI [41]: > 100 µM
- TGI [42]: > 100 µM
- TGI [43]: > 100 µM
- TGI [44]: > 100 µM
- TGI [45]: > 100 µM
- TGI [46]: > 100 µM
- TGI [47]: > 100 µM
- TGI [48]: > 100 µM
- TGI [49]: > 100 µM
- TGI [50]: > 100 µM
- TGI [51]: > 100 µM
- TGI [52]: > 100 µM
- TGI [53]: > 100 µM
- TGI [54]: > 100 µM
- TGI [55]: > 100 µM
